In US5420132A, “Substituted benzodioxins” (Adir et Compagnie, priority 1993, dated 1995):

Assays:
[1] = test system: Human red blood corpuscles; assay: Measurement of haemolysis induced by AAPH; assay type: cell-based; conditions: Erythrocyte, 0.5 h, 10^-5 M, 30 minutes at 37° C.
Procedure: Measurement of haemolysis induced by AAPH
Human red blood corpuscles are placed for a period of 30 minutes at 37° C. in the presence of AAPH, which generates free radicals at a constant rate, and in the presence or absence of the compounds being studied. The optical density of the supernatant is measured at 403 nm compared with the control without AAPH. The percentage inhibition of haemolysis is calculated by comparison with the 100% haemolysis obtained for the AAPH control.

native human LDLs = assay: Protective activity against LDL oxidation (electrophoretic method, FPLC, Cu2+ induced); assay type: biochemical; conditions: 10 μM; with Cu++; 24 hours
Procedure: Study of the protective activity against LDL oxidation (electrophoretic method)
The capacity of the compounds of the invention to decrease the proportions of oxidised LDLs was measured by incubating a preparation comprising native human LDLs, a Cu^2+ free radical generator, and the compounds to be tested for 24 hours. The oxidation products are determined by FPLC (Fast Protein Liquid Chromatography) in accordance with the method described by B. Vedie et al., Journal of Lipid Research, 32, 1359-1369, (1991). By that method it was possible to identify 5 peaks corresponding to different degrees of LDL oxidation. Peaks A and B correspond to the native forms of LDL and peaks C, D and E correspond to the different states of oxidation of the LDLs (peak E corresponding to the most oxidised form). The results are expressed as a percentage of the LDLs corresponding to those different states of oxidation.

thoracic aorta of rats = assay: Anticalcic activity (contraction induced by potassium chloride); parameters: species or system male Wistar rats; conditions: Rattus norvegicus; 60 mM KCl; 2 preparations, 8 concentrations; read-out: IC50, inhibition of thoracic aorta contraction induced by potassium chloride
Procedure: The anticalcic activity was studied in the thoracic aorta of male Wistar rats. Once they have been introduced into experimental vessels containing a physiological solution, the vascular rings are subjected to an initial tension of 2 g. The preparations are then placed in the presence of a hyperpotassic solution (60 mM of potassium chloride) in order to obtain a sustained contractile response. Increasing concentrations of the product being tested are then added for the period necessary to obtain a stable effect.
Each compound of the invention is thus tested in 2 preparations at 8 concentrations (10^-8 M to 3×10^-5 M) to obtain a concentration-effect curve and determine the IC50.

5-HT2 receptors = assay: Serotoninergic activity (competition with [3H]ketanserine); assay type: binding, rat (male Wistar, cerebral cortex membranes); conditions: 10 μM (n=3); [3H]ketanserine 0.5 nM, 40 min/25° C.
Procedure: The experiments are carried out on membranes prepared from the cerebral cortex of male Wistar rats (CERJ, le Genest St Isle). The binding measurements are carded out using ketanserine as reference compound. The conditions of the experiment are summarised below:
After incubation, the membranes are quickly filtered. The filtrates are then transferred to flasks containing scintillation liquid and the bound radioactivity is determined by a liquid scintillation counter (LS6000, Beckman). The affinity of the compounds of the invention for the 5-HT2 receptors is evaluated, at the concentration 10 μM (n=3), using competition experiments.

[2] = Hypolipaemic activity in hypercholesterolaemic mice; assay type: in vivo; conditions: 100 mg/kg p.o.; serum
Procedure: Groups each comprising 6 mice are rendered hypercholesterolaemic by a diet that is high in cholesterol and in cholic acid for 7 days. The compounds of the invention are administered p.o. (100 mg/kg) on the 6th and 7th day (half the dose being administered on day 6 and the other half on day 7). The animals are then left without food and drink for one night. The reduction in the concentration of cholesterol in the serum compared with hypercholesterolaemic control mice is then evaluated, as is also the reduction in concentration of lipoproteins (corresponding to the LDL-VLDL fractions), after precipitation by the addition of heparin to the serum, in the same hypercholesterolaemic mice compared with the control animals.

[3] = Antihypoxic activity in vivo (time until first gasps); parameters: species or system mice (Swiss CD 1); conditions: 30 minutes before hypoxia, control 36 ± 4
Procedure: Male mice (Swiss CD 1 ) weighing from 25 to 30 g are, before any experiment, housed for one week under conditions customary for animals (20°-22° C., 55% humidity, light/darkness cycle 12/12, commercial feed and water as desired). The mice are placed in a box (7×5×5 cm) in which an atmosphere poor in oxygen is created by passing through a stream of air (96% N2, 4% O2, 12 l/min). The time taken until the first signs of suffocation (or "gasps") occur is measured. The mice receive a dose of the compounds to be tested by the intraperitoneal route 30 minutes before the hypoxia is induced. Vincamine is used as the reference drug.

[4] = test system: platelet aggregation (rabbit plasma rich in platelets); assay: Measurement of antiaggregation activity (sodium arachidonate induced); assay type: cell-based; conditions: Oryctolagus cuniculus, sodium arachidonate (50 μ/ml), read-out: Minimum active concentration, inhibition of maximum non-reversible platelet aggregation
Procedure: Measurement of antiaggregation activity
In that study, the compounds of the invention (100 μ/ml) were tested with the aim of quantifying their ability to inhibit the maximum non-reversible platelet aggregation (rabbit plasma rich in platelets) induced by sodium arachidonate (50 μ/ml). Thus the minimum active concentration for the compound of Example 1 is 20 μM.

lipoxygenase = assay: Measurement of lipoxygenase activities (B4 leukotriene release, calcium ionophore A 23 187); assay type: cell-based; conditions: 10 μM; rabbit granulocytes; average of 3
Procedure: Measurement of lipoxygenase activities The measurements are carried out on rabbit granulocytes. The isolated granulocytes are stimulated in vitro by the calcium ionophore A 23 187. The B4 leukotrienes released in the extracellular medium are measured by Radio Immuno Assay (RIA). The results (average of 3 independent measurements) are expressed as a percentage inhibition compared with the control.

O=C(Nc1ccccc1)C1COc2cc(O)ccc2O1 (centres unmarked) [Example 11, 6-HYDROXY-2-ANILINOCARBONYL-2,3-DIHYDRO-1,4-BENZODIOXIN]
inhibition at 10 µM [1]: 100%

CC(C)(Sc1cc(C(C)(C)C)c(O)c(C(C)(C)C)c1)Sc1cc(C(C)(C)C)c(O)c(C(C)(C)C)c1 [probucol, reference compound]
LDL oxidised form D separated by FPLC, percentage of LDLs (native human LDLs): 80%
LDL oxidised form E (most oxidised) separated by FPLC, percentage of LDLs (native human LDLs): 20%

O=C(C1=COc2ccc(O)cc2O1)N1CCN(C(c2ccc(F)cc2)c2ccc(F)cc2)CC1 [Example 2, 7-HYDROXY-2-{4-[BIS(4-FLUOROPHENYL)METHYL]PIPERAZIN-1-YLCARBONYL}-1,4-BENZODIOXIN]
inhibition at 10 µM [1]: 100%

Oc1ccc2c(c1)OC=C(CN1CCN(C(c3ccc(F)cc3)c3ccc(F)cc3)CC1)O2 [Example 58, 6-HYDROXY-2-{4-[BIS-(4-FLUOROPHENYL)METHYL]PIPERAZIN-1- YLMETHYL}-1,4-BENZODIOXIN]
IC50 (thoracic aorta of rats): 600 nM
Inhibiting activity, 5-HT2 receptor binding (5-HT2 receptors): 79%
Reduction in the LDL-VLDL fraction [2]: 35%
Reduction in the total cholesterol [2]: 33%

O=C(Nc1ccccc1)C1=COc2cc(O)ccc2O1 [Example 10, 6-HYDROXY-2-ANILINOCARBONYL-1,4-BENZODIOXIN]
Time until the first gasps occur ([3]; 2,5 mg/kg i.p.): 97 s
inhibition at 10 µM [1]: 100%

CC[C@]12CCCN3CCc4c(n(c5ccccc45)[C@@](O)(C(=O)OC)C1)[C@@H]32 [Vincamine, reference compound]
Time until the first gasps occur ([3]; 20 mg/kg i.p.): 147 ± 14 s
Time until the first gasps occur ([3]; 2,5 mg/kg i.p.): inactive

COc1ccc(CN2CCN(C(=O)C3COc4ccc(O)cc4O3)CC2)c(OC)c1OC (centres unmarked) [Example 17, 7-HYDROXY-2-[4-(2,3,4-TRIMETHOXYBENZYL)PIPERAZIN-1-YLCARBONYL]-2,3-DIHYDRO- 1,4-BENZODIOXIN]
inhibition at 10 µM [1]: 100%

O=C(Nc1ccccc1)C1=COc2ccc(O)cc2O1 [Example 13, 7-HYDROXY-2-ANILINOCARBONYL-1,4-BENZODIOXIN]
inhibition at 10 µM [1]: 100%

O=C(C1COc2cc(O)ccc2O1)N1CCN(C(c2ccc(F)cc2)c2ccc(F)cc2)CC1 (centres unmarked) [Example 3, 6-HYDROXY-2-{4-[BIS(4-FLUOROPHENYL)METHYL]PIPERAZIN -1-YLCARBONYL}-2,3-DIHYDRO-1,4-BENZODIOXIN]
inhibition at 10 µM [1]: 88%

O=C(Nc1ccccc1)C1COc2ccc(O)cc2O1 (centres unmarked) [Example 12, 7-HYDROXY-2-ANILINOCARBONYL-2,3-DIHYDRO-1,4-BENZOP DIOXIN]
inhibition at 10 µM [1]: 100%

O=C(C1=COc2cc(O)ccc2O1)N1CCN(C(c2ccc(F)cc2)c2ccc(F)cc2)CC1 [Example 1, 6-HYDROXY-2-{4-[BIS(4-FLUOROPHENYL)METHYL]PIPERAZIN-1-YLCARBONYL}-1,4-BENZODIOXIN]
minimal effective concentration [4]: 20 µM
Inhibiting activity (B4 leukotriene release) (lipoxygenase): 62%
LDL form B separated by FPLC (native form), percentage of LDLs (native human LDLs): 95%
LDL oxidised form C separated by FPLC, percentage of LDLs (native human LDLs): 5%
IC50 (thoracic aorta of rats): 500 nM
Time until the first gasps occur ([3]; 2,5 mg/kg i.p.): 108 s
inhibition at 10 µM [1]: 62%
